# From US20080272062A1, “BROAD SPECTRUM ANTIMICROBIAL PURIFICATION DEVICES AND METHODS FOR PURIFYING FLUIDS” (WATER VISIONS INTERNATIONAL, INC., priority 2006, published 2008)
# Where a name gives a salt, the structure may show the parent alone. Read-outs that look alike come from different tables or passages of the source. Marks after values point to notes of the source that are not given here.
# Legend:
# [1] = Solubility in solvents (aliquot dried and weighed); format: physicochemical; conditions: for Solubility: 7 days
# Protocol: A sample of material was placed in a small vial with a few mL of solvent. The solution was stirred by shaking for several hours and then allowed to sit for a week equilibrating.
# A 1 mL aliquot drawn from the solution using an Eppendorf pipette was placed in a weigh boat and dried in an oven. The dried sample was weighed. Measurements of the alcohol and water solvents were taken after three hours of mixing and again after a week. At the three hour measurement, it was necessary to centrifuge the sample in order to separate the solvent solution from the particulate matter.
# [2] = Temperature dependence of solubility in water; format: physicochemical
# Protocol: The effect of temperature on the solubility of chlorhexidine dihydrate in water was determined by placing a sample of chlorhexidine dihydrate in a 100 mL round bottom flask with 50 mL of deionized water. The round bottom flask contained a stir bar and was placed in an oil bath on a hot plate. The solution was gradually warmed. Aliquots were taken every 15° C. The aliquot was taken from the solution using of a syringe fitted with a micropore filter (Whatman fiberglass filter GF/D, pore size 2.7). The filter separated the solution from the suspended material. The solution was dried in a weigh boat at 60° C. overnight.
# Dry bulk density = format: physicochemical; conditions: packed in 50 ml graduated cylinder, vortex agitated
# Protocol: The materials were loosely packed into tared 50 ml graduated cylinders and agitated with a vortex mixer to further pack the materials in the cylinders. The weight of the material was determined and then divided by the volume of material to determine the bulk density. The larger value for the dihydrate is due to the significant amorphous fraction of the material that is not present in the pure chlorhexidine. The amorphous particles are smaller than crystals and fill the voids between crystals allowing for a greater packing density of particles, […]
# Porosity to water = format: physicochemical; conditions: water head 25 cm, cross-sectional area 2.775 cm^2
# Protocol: To measure the porosity of the materials to water, samples were placed in a ¾″ inner diameter plastic tube fitted with a plug with a hole in the middle. A wire mesh, on top of the plug, prevented the powder from passing through the plug. Deionized water was passed through the sample until the material was sufficiently packed and a second wire mesh was positioned on top of the sample. Water was added to the tube to a height of 25 centimeters above the plug of material. This height was maintained to plus or minus one cm in order to maintain a constant pressure. The porosity was calculated by calculating the volumetric flow rate (volume/time), multiplying by the cross-sectional area (2.775 cm^2), and dividing by the thickness. Accordingly, the rate should increase proportionally with increases in the cross section and decreases in the thickness.
# [3] = Density by suspension in binary solvent system; format: physicochemical; conditions: melted glassy chunk, chlorobenzene/carbon tetrachloride
# Description: Chlorhexidine and chlorhexidine dihydrate were melted on a glass slide heated on a hot plate. These glassy materials easily fractured into large chunks. One of these chunks from each sample was used to determine the density of the material. Using a binary solvent system consisting of chlorobenzene (density 1.102 g/cc) and carbon tetrachloride (density […]), the chunk of material was suspended. The solution was adjusted until the particle remained hovering in mid solution without floating to the surface or sinking to the bottom. The resulting solution was weighed in a 10 mL volumetric flask and the density was calculated. The procedure was repeated at least 4 times for each sample.
# [4] = Surface energy, contact angle on dip-coated glass slides; format: physicochemical; design: unit not given here
# Protocol: Glass slides were cleaned in hot chromic acid, deionized water and blown dry. Two slides were treated with hexamethyldisilazane to lower their surface energy. Solutions of chlorhexidine dihydrate in chloroform/methanol and chlorhexidine in methylene chloride/methanol were prepared. The slides were coated using a dip-coater with a dipping speed of 2.8 mm/min. […] The untreated slides produced very uniform thin films.
# A. niger = assay: Gravity flow of inoculum through chlorhexidine dihydrate particle bed; format: cell-based
# Protocol: (§1) Columns having a length of 30.48 cm and diameter of 0.75 in were packed with particle beds comprising chlorhexidine dihydrate having lengths of 1.9 cm, 2.5 cm, and 4.1 cm. A 40 mL mixture of inocculum (comprising 35 million B. subtilis, 91 million E. coli, 130 million R. terrigena, and 100 million A. niger) and water was passed by gravity through the chlorhexidine dihydrate particle bed.
# B. subtilis = assay: as above; format: cell-based
# Protocol: as §1
# E. coli [5] = assay: as above; format: cell-based
# Protocol: as §1
# R. terrigena = assay: as above; format: cell-based
# Protocol: as §1
# E. coli/bacteria = assay: Pumped flow through chlorhexidine dihydrate treatment device, Aerobic Plate Count; format: cell-based
# Protocol: Dechlorinated city of Atlanta tap water was inoculated with a culture of E. coli/bacteria and pumped through a 0.25 inch chlorhexidine dihvdrate treatment device at a rate of 1 to 2 L/min up to 80 L. Bacterial recovery was determined by Aerobic Plate Count and is shown in Table 9.
# Accordingly, the reaction of chlorhexidine dihydrate appears to be of a “catalytic” nature. Conversely, typical applications involving soluble chlorhexidine gluconate result in its consumption and approach a second-order reaction. The same is true for most other known antimicrobial agents. Thus, chlorhexidine dehydrate is particularly suitable for use as a purification material.
# all microorganisms = assay: Treatment of influent contaminated water stream with particle bed of insoluble chlorhexidine dihydrate; format: cell-based
# Description: The composition of chlorhexidine dihydrate produced mortality in all microorganisms with a minimum or greater mean 10-log reduction upon treatment of an influent contaminated water stream with a particle bed of insoluble chlorhexidine dihydrate. While it is known that soluble chlorhexidine salts are bactericidal for some microorganisms, the purification materials embodied herein require insoluble antimicrobial agents. Thus, the previously known chlorhexidine salts are unacceptable for use in the purification materials embodied herein.
# [6] = Solubility in solvents (aliquot dried and weighed); format: physicochemical; conditions: 3 days
# E. coli [7] = assay: Gravity flow of inoculum through chlorhexidine base particle bed; format: cell-based; conditions: 40 mL, 6.4 million E. coli, 54 minutes
# Protocol: A 40 mL mixture of inocculum comprising 6.4 million E. coli and water was passed by gravity flow through a chlorhexidine base particle bed. It took 54 minutes for the fluid to pass through the particle bed.
# [8] = cited from earlier work
# [9] = Water/Ethanol (50:50, 30.0 dyne/cm)
# [10] = Water/Ethanol (70:30, 36.1 dyne/cm)
# [11] = Water/Ethanol (90:10, 51.3 dyne/cm)
# [12] = bed 2.5 cm, flow time 2.0 minutes
# [13] = bed 4.1 cm, flow time 1.5 hours
compound,measurement,setting,value
"N=C(NCCCCCCNC(=N)NC(=N)Nc1ccc(Cl)cc1)NC(=N)Nc1ccc(Cl)cc1.O.O [Chlorhexidine dihydrate, chlorhexidine dihydrate]",Solubility,[1]; Chloroform,5600 µg/mL
same,Solubility,[1]; Ethanol,600 µg/mL
same,Solubility,[1]; Ethyl Acetate,10000 µg/mL
same,Solubility,[1]; Iso-propanol,400 µg/mL
same,Solubility,[1]; MIBK,21100 µg/mL
same,Solubility,[1]; Methanol,2800 µg/mL
same,Solubility,[1]; Methylene Chloride,5600 µg/mL
same,Solubility,[1]; Water,<400 µg/mL
same,Solubility (in words),"[1]; hot methanol, chloroform, methylene chloride, and ketones",appreciable solubility
same,Solubility in water,[2]; 30 ° C.,460 µg/mL
same,Solubility in water,[2]; 45 ° C.,740 µg/mL
same,Solubility in water,[2]; 60 ° C.,780 µg/mL
same,Solubility in water,[2]; 75 ° C.,920 µg/mL
same,Solubility in water,[2]; 90 ° C.,890 µg/mL
same,Solubility (in words),[2]; hot and cold water,very limited solubility
same,Bulk Density,Dry bulk density,0.70 g/cc
same,Porosity,Porosity to water,7.55 mL cm^2/min/cm
same,Density,[3],1.266 ± .001 g/cc
same,Mean Contact Angle,[4]; Water (72.2 dyne/cm),7.08
same,Mean Contact Angle,[4]; [9],0
same,Mean Contact Angle,[4]; [10],18.44
same,Mean Contact Angle,[4]; [11],13.08
same,% Reduction,"A. niger; bed 1.9 cm, flow time 1.0 hour",>99.9%
same,Effluent (1.9 cm),"A. niger; bed 1.9 cm, inoculum 100 × 10^6, flow time 1.0 hour",<1000
same,% Reduction,A. niger; [12],99.2%
same,Effluent (2.5 cm),"A. niger; bed 2.5 cm, inoculum 100 × 10^6, flow time 2.0 minutes",8000
same,% Reduction,A. niger; [13],>99.9%
same,Effluent (4.1 cm),"A. niger; bed 4.1 cm, inoculum 100 × 10^6, flow time 1.5 hours",<1000
same,% Reduction,"B. subtilis; bed 1.9 cm, flow time 1.0 hour",>99.997%
same,Effluent (1.9 cm),"B. subtilis; bed 1.9 cm, inoculum 35 × 10^6, flow time 1.0 hour",<1000
same,% Reduction,B. subtilis; [12],99.6%
same,Effluent (2.5 cm),"B. subtilis; bed 2.5 cm, inoculum 35 × 10^6, flow time 2.0 minutes",14 × 10^5
same,% Reduction,B. subtilis; [13],>99.997%
same,Effluent (4.1 cm),"B. subtilis; bed 4.1 cm, inoculum 35 × 10^6, flow time 1.5 hours",<1000
same,% Reduction,"E. coli [5]; bed 1.9 cm, flow time 1.0 hour",>99.999%
same,Effluent (1.9 cm),"E. coli [5]; bed 1.9 cm, inoculum 91 × 10^6, flow time 1.0 hour",<1000
same,% Reduction,E. coli [5]; [12],>99.999%
same,Effluent (2.5 cm),"E. coli [5]; bed 2.5 cm, inoculum 91 × 10^6, flow time 2.0 minutes",<1000
same,% Reduction,E. coli [5]; [13],>99.999%
same,Effluent (4.1 cm),"E. coli [5]; bed 4.1 cm, inoculum 91 × 10^6, flow time 1.5 hours",<1000
same,% Reduction,"R. terrigena; bed 1.9 cm, flow time 1.0 hour",>99.999%
same,Effluent (1.9 cm),"R. terrigena; bed 1.9 cm, inoculum 130 × 10^6, flow time 1.0 hour",<1000
same,% Reduction,R. terrigena; [12],>99.999%
same,Effluent (2.5 cm),"R. terrigena; bed 2.5 cm, inoculum 130 × 10^6, flow time 2.0 minutes",<1000
same,% Reduction,R. terrigena; [13],>99.999%
same,Effluent (4.1 cm),"R. terrigena; bed 4.1 cm, inoculum 130 × 10^6, flow time 1.5 hours",<1000
same,inactivation of E. coli,"E. coli/bacteria; 1 to 2 L/min up to 80 L, 0.25 inch thickness disc",100%
same,Total Aerobic Plate Count,"E. coli/bacteria; 20 L run through device, untreated 8.6 × 10^8, 1 to 2 L/min",10 # colonies/mL
same,Total Aerobic Plate Count,E. coli/bacteria; 40 L run through device,<10 # colonies/mL
same,Total Aerobic Plate Count,E. coli/bacteria; 60 L run through device,<10 # colonies/mL
same,Total Aerobic Plate Count,E. coli/bacteria; 80 L run through device,<10 # colonies/mL
same,mean log reduction (mortality in all microorganisms),all microorganisms,≥ 10 log
same,Solubility,[6]; Ethanol,1700 µg/mL
same,Solubility,[6]; Iso-propanol,900 µg/mL
same,Solubility,[6]; Methanol,3600 µg/mL
same,Solubility,[6]; Water,<500 µg/mL
"[H]/N=C(\N/C(=N/[H])NCCCCCCNC(=N)NC(=N)Nc1ccc(Cl)cc1)Nc1ccc(Cl)cc1 [Chlorhexidine hydrochloride, chlorhexidine hydrochloride]",Bulk Density,Dry bulk density,0.15 g/cc
"[H]/N=C(\N/C(=N/[H])NCCCCCCNC(=N)NC(=N)Nc1ccc(Cl)cc1)Nc1ccc(Cl)cc1 [Chlorhexidine, N,N″Bis(4-chlorophenyl)-3,12-diimino-2,4,11,13-tetrazatetradecanediimideamide, reference compound]",Bulk Density,Dry bulk density,0.64 g/cc
same,Porosity,Porosity to water,3.60 mL cm^2/min/cm
same,Density,[3],1.270 ± .001 g/cc
same,Mean Contact Angle,[4]; Water (72.2 dyne/cm),10.28
same,Mean Contact Angle,[4]; [9],0
same,Mean Contact Angle,[4]; [10],13.5
same,Mean Contact Angle,[4]; [11],15.3
same,reduction in E. coli,E. coli [7],greater than 99.999%
same,Solubility,"[8]; reported by Block, Disinfection, Sterilization, and Preservation, 2001",0.0008%
same,Solubility,[8]; reported by Merck Index,0.08%
